The subject of test [1] is ECHCO. The test is described as follows: Postemergence foliar-applied, direct seeded rice weeds (Example I). It is filed as in vivo, Echinochloa colona (L.) Link. The source says:
(§1) Seeds or nutlets of the desired test plant species were planted in a soil matrix prepared by mixing a loam or sandy loam soil (e.g., 28.6 percent silt, 18.8 percent clay, and 52.6 percent sand, with a pH of about 5.8 and an organic matter content of about 1.8 percent) and calcareous grit in an 80 to 20 ratio. The soil matrix was contained in plastic pots with a volume of 1 quart and a surface area of 83.6 cm^2. When required to ensure good germination and healthy plants, a fungicide treatment and/or other chemical or physical treatment was applied. The plants were grown for 8-22 days in a greenhouse with an approximate 14 h photoperiod which was maintained at about 29° C. during the day and 26° C. during the night. Nutrients (Peters Excel® 15-5-15 5-Ca 2-Mg and iron chelate) were applied in the irrigation solution as needed and water was added on a regular basis. Supplemental lighting was provided with overhead metal halide 1000-Watt lamps as necessary. The plants were employed for testing when they reached the first through fourth true leaf stage.
(§2) Treatments consisted of the acid or esters of 4-amino-3-chloro-5-fluoro-6-(4-chloro-2-fluoro-3-methoxy-phenyl)pyridine-2-carboxylic acid (Compound A), each formulated as an SC (suspension concentrate), and various herbicidal components alone and in combination. Forms of compound A were applied on an acid equivalent basis.
(§3) Other herbicidal components were applied on an acid equivalent basis and include acetolactate synthase (ALS)-inhibiting herbicides (imidazolinone chemical class) imazethapyr ammonium salt formulated as Newpath®, imazamox ammonium salt formulated as Beyond®, imazapic ammonium salt formulated as Plateau®, imazapyr isopropylamine salt formulated as Arsenal®, imazamethabenz-methyl (technical material) and imazaquin isopropylamine salt formulated as Scepter®/Imagine®.
(§4) Treatment requirements were calculated based upon the rates being tested, the concentration of active ingredient or acid equivalent in the formulation, and a 12 mL application volume at a rate of 187 L/ha.
For treatments comprised of formulated compounds, measured amounts of compounds were placed individually in 25 mL glass vials and diluted in a volume of 1.25% (v/v) Agri-Dex® crop oil concentrated to obtain 12× stock solutions. […]
(§5) For treatments comprised of formulated and technical compounds, weighed amounts of the technical materials were placed individually in 25 mL glass vials and dissolved in a volume of 97:3 v/v acetone/DMSO to obtain 12× stock solutions, and measured amounts of the formulated compounds were placed individually in 25 mL glass vials and diluted in a volume of 1.5% (v/v) crop oil concentrate or water to obtain 12× stock solutions. […]

The test system of test [2] is LEFCH. The test is described as follows: In-water applied, transplanted paddy rice weeds (Example II). It is filed as in vivo, Leptochloa chinensis (L.) Nees. As for the experimental part: Weed seeds or nutlets of the desired test plant species were planted in puddled soil (mud) prepared by mixing a shredded, non-sterilized mineral soil (50.5 percent silt, 25.5 percent clay, and 24 percent sand, with a pH of about 7.6 and an organic matter content of about 2.9 percent) and water at a 1:1 volumetric ratio. The prepared mud was dispensed in 365 mL aliquots into 16-ounce (oz.) non-perforated plastic pots with a surface area of 86.59 square centimeters (cm^2) leaving a headspace of 3 centimeters (cm) in each pot. Mud was allowed to dry overnight prior to planting or transplanting. Rice seeds were planted in Sun Gro MetroMix® 306 planting mixture, which typically has a pH of about 6.0 to about 6.8 and an organic matter content of about 30 percent, in plastic plug trays. Seedlings at the second or third leaf stage of growth were transplanted into 860 mL of mud contained in 32-oz. non-perforated plastic pots with a surface area of 86.59 cm^2 4 days prior to herbicide application. The paddy was created by filling the headspace of the pots with 2.5 to 3 cm of water. When required to ensure good germination and healthy plants, a fungicide treatment and/or other chemical or physical treatment was applied. The plants were grown for 4-22 days in a greenhouse with an approximate 14 h photoperiod which was maintained at about 29° C. during the day and about 26° C. during the night. Nutrients were added as Osmocote® (19:6:12, N:P:K+minor nutrients) at 2 g per 16-oz. pot and 4 g per 32-oz. pot. Water was added on a regular basis to maintain the paddy flood, and supplemental lighting was provided with overhead metal halide 1000-Watt lamps as necessary. The plants were employed for testing when they reached the first through fourth true leaf stage.
Treatments consisted of the acid or esters of 4-amino-3-chloro-5-fluoro-6-(4-chloro-2-fluoro-3-methoxy-phenyl)pyridine-2-carboxylic acid (compound A) each formulated as an SC and various herbicidal components alone and in combination. Forms of compound A were applied on an acid equivalent basis. […]
Treatment requirements for each compound or herbicidal component were calculated based upon the rates being tested, the concentration of active ingredient or acid equivalent in the formulation, an application volume of 2 mL per component per pot, and an application area of 86.59 cm^2 per pot.
For formulated compounds, a measured amount was placed in an individual 100 or 200 mL glass vial and was dissolved in a volume of 1.25% (v/v) Agri-Dex® crop oil concentrate to obtain application solutions. […]

Test [3] relates to IPOHE. The test is described as follows: Postemergence foliar-applied, direct seeded rice weeds (Example I). It is filed as in vivo, Ipomoea hederacea Jacq.
From the text: as §1, §2, §3, §4
For treatments comprised of formulated compounds, measured amounts of compounds were placed individually in 25 mL glass vials and diluted in a volume of 1.25% (v/v) Agri-Dex® crop oil concentrated to obtain 12× stock solutions. […] Application solutions were prepared by adding an appropriate amount of each stock solution (e.g., 1 mL) and diluted to the appropriate final concentrations with the addition of 10 mL of an aqueous mixture of 1.25% (v/v) crop oil concentrate so that the final spray solutions contained 1.25+/−0.05% (v/v) crop oil concentrate.
For treatments comprised of technical compounds, weighed amounts can be placed individually in 25 mL glass vials and dissolved in a volume of 97:3 v/v acetone/DMSO to obtain 12× stock solutions. […] Application solutions can be prepared by adding an appropriate amount of each stock solution (e.g., 1 mL) and diluted to the appropriate final concentrations with the addition of 10 mL of an aqueous mixture of 1.5% (v/v) crop oil concentrate so that the final spray solutions contain 1.25% (v/v) crop oil concentrate. When technical materials are used, the concentrated stock solutions can be added to the spray solutions so that the final acetone and DMSO concentrations of the application solutions are 16.2% and 0.5%, respectively.
as §5

The mark [4] stands for this setting: Compound A Benzyl Ester 8.75 gae/ha.

Each structure is given as a SMILES string.

In the case of `Cc1cnc(C2=NC(C)(C(C)C)C(=O)N2)c(C(=O)O)c1.N` (racemic) [Imazapic ammonium, ammonium (±)-2-[4,5-dihydro-4-methyl-4-(1-methylethyl)-5-oxo-1H-imidazol-2-yl]-5-methyl-3-pyridinecarboxylic acid], the “Visual Weed Control (%) - 25 DAA ECHCO Obs” value in test [1] (Imazapic ammonium 17.5 gae/ha) was determined as 70%.

On to `CCc1cnc(C2=NC(C)(C(C)C)C(=O)N2)c(C(=O)O)c1.N` (racemic) [Imazethapyr ammonium, ammonium (±)-2-[4,5-dihydro-4-methyl-4-(1-methylethyl)-5-oxo-1H-imidazol-2-yl]-5-ethyl-3-pyridinecarboxylate], for which the “Visual Weed Control (%) - 25 DAA LEFCH Obs” value was determined as 0% in test [2] (Imazethapyr ammonium 8.75 gae/ha), 0% in test [2] (Imazethapyr ammonium 17.5 gae/ha) and 95% in test [2] (Imazethapyr ammonium 35 gae/ha).

Turning to `COc1c(Cl)ccc(-c2nc(C(=O)O)c(Cl)c(N)c2F)c1F` [Compound A Acid, 4-amino-3-chloro-6-(4-chloro-2-fluoro-3-methoxyphenyl)-5-fluoropyridine-2-carboxylic acid], the entries for the “Visual Weed Control (%) - 25 DAA ECHCO Obs” value in test [1] (Compound A Acid 4.38 gae/ha), in test [1] (Compound A Acid 8.75 gae/ha) and in test [1] (Compound A Acid 17.5 gae/ha) were 60%, 65% and 90%, respectively. Also, the “Visual Weed Control (%) - 21 DAA IPOHE Obs” value is reported as 0% in test [3] (Compound A Acid 4.38 gae/ha), 10% in test [3] (Compound A Acid 8.75 gae/ha) and 30% in test [3] (Compound A Acid 17.5 gae/ha).

For `COc1c(Cl)ccc(-c2nc(C(=O)OCc3ccccc3)c(Cl)c(N)c2F)c1F` [Compound A Benzyl Ester, benzyl ester of 4-amino-3-chloro-5-fluoro-6-(4-chloro-2-fluoro-3-methoxy-phenyl)pyridine-2-carboxylic acid], the figures for the “Visual Weed Control (%) - 21 DAA IPOHE Obs” value in test [3] (Compound A Benzyl Ester 4.38 gae/ha), in test [3] (setting [4]) and in test [3] (Compound A Benzyl Ester 17.5 gae/ha) were 0%, 10% and 25%, respectively. Further, the “Visual Weed Control (%) - 25 DAA LEFCH Obs” value in test [2] (setting [4]) came out at 0%.

(Values after patent US8906826B2, “Herbicidal compositions comprising 4-amino-3-chloro-5-fluoro-6-(4-chloro-2-fluoro-3-methoxyphenyl) pyridine-2-carboxylic acid or a derivative thereof and imidazolinones” (Dow AgroSciences, LLC, priority 2012, dated 2014).)
